Test results reported in patent US20130261045A1, “GREEN TEA POLYPHENOL ALPHA SECRETASE ENHANCERS AND METHODS OF USE” (UNIVERSITY OF SOUTH FLORIDA, priority 2005, published 2013).
Peptide text beside a SMILES is read from it. * marks the point of attachment. Cbz = O=C(OCc1ccccc1)*

Legend:
Format in all cases: cell-based, murine
APP cleavage processing = assay: Western blot/immunoprecipitation of APP cleavage (CTFs, sAPP-α, holo APP) in APP-transfected N2a cells; settings: for α-CTF production: at the high dose; for α-CTF generation and α-CTF to β-CTF ratio: 80 μM; for effect on the action of EGCG on α-CTF cleavage: GC or C 80 μM with EGCG, FIG. 2F
Method: Cell cultured supernatants were collected and cell lysates were prepared from these cultured cells.
Cultured cells and mouse brain were lysed in ice-cold lysis buffer described above, and an aliquot corresponding to 50 μg of total protein was electrophoretically separated using 16.5% Tris-tricine gels. Electrophoresed proteins were then transferred to PVDF membranes (Bio-Rad), washed in dH2O, and blocked for 1 hour at ambient temperature in Tris-buffered saline (TBS; Bio-Rad) containing 5% (w/v) for non-fat dry milk. After blocking, membranes were hybridized for 1 hour at ambient temperature with various antibodies, including against the C- (369), N-terminus of APP (22C11), the N-terminus of Aβ (6E10), and ADAM10 and TACE (Calbiochem). Membranes were then washed 3× for 5 min each in dH2O and incubated for 1 hour at ambient temperature with the appropriate HRP-conjugated secondary antibody (1:1,000, Pierce Biotechnology, Inc. Rockford, Ill.). All antibodies were diluted in TBS containing 5% (w/v) of non-fat dry milk. Blots were developed using the luminal reagent (Pierce Biotechnology). Densitometric analysis was done using the Fluor-S Multimager™ with Quantity One™ software (Bio-Rad). Immunoprecipitation was performed for detection of sAPP-α, sAPP-β and Aβ by incubating 200 μg of total protein of each sample with 6E10 (1:100; Signet) or 22C11 (1:100; Roche, Basel, Switzerland) overnight with gentle rocking at 4° C., and 10 μL of 50% protein A-Sepharose beads were then added to the sample (1:10; Sigma) prior to gentle rocking for an additional 4 hours at 4° C. Following washes with 1× cell lysis buffer, samples were subjected to Western blot as described above. Antibodies used for Western blot included antibody 369 (1:1,000), anti-C-terminal APP antibody (1:500; Chemicon, Temecula, Calif.), BAM-10 (1:1,000; Sigma), 6E10 (1:1,000; Signet) or anti-Actin antibody (1:1,500; as an internal reference control; Roche). α-, β- and γ-secretase activities were quantified in cell lysates and mouse brain homogenates using available kits based on secretase-specific peptides conjugated to fluorogenic receptor molecules (R&D Systems, Minneapolis, Minn.).

Aβ generation = assay: Aβ ELISA, conditioned media of APP-transfected N2a cells (Example 1); settings: co-treatment with EGCG 20 μM, GC or C 80 μM, 12 hours; SweAPP N2a cells
Method: Aβ1-40 and 1-42 peptides were analyzed in the conditioned media from SweAPP N2a cells (FIGS. 1A, 1C, 1D) and transgenic APPsw mouse-derived primary neuronal cells (FIG. 1B) by ELISA (n=3 for each condition).
TAPI-1, β and γ-secretase inhibitors were obtained from Calbiochem (San Diego, Calif.). Green tea extract (75% polyphenols) was obtained from the Vitamin Shoppe™ (North Bergen, N.J.).
Cultured cells were lysed in ice-cold-lysis buffer (20 mM Tris, pH 7.5, 150 mM NaCl, 1 mM EDTA, 1 mM EGTA, 1% v/v Triton X-100, 2.5 mM sodium pyropgosphate, 1 mM β-glycerolphosphate, 1 mM Na3VO4, 1 μg/mL leupeptin, 1 mM PMSF) as previously described (Tan et al., 2002). Mouse brains were isolated under sterile conditions on ice and placed in ice-cold lysis buffer. Brains were then sonicated on ice for approximately 3 min, allowed to stand for 15 min at 4° C., and centrifuged at 15,000 rpm for 15 min. Total Aβ1-42 species were detected by acid extraction of brain homogenates in 5 M guanidine buffer (ret), followed by a 1:10 dilution in lysis buffer. Soluble Aβ1-42 was directly detected in cultured cell lysates or brain homogenates prepared with lysis buffer described above by a 1:4 or 1:10 dilution, respectively. Aβ1-42 was quantified in these samples using the Aβ1-42 ELISA kit (BioSource, Camarillo, Calif.) in accordance with the manufacturer's instructions, except that standards included a 0.5 M guanidine buffer.
In order to examine the effects of green tea's components on APP cleavage processing, for a first step, N2a neuroblastoma cells overproducing Aβ were treated with each of the aforementioned components at a wide range of doses. In addition, doses of (+)-catechin hydrate (CH) and gallic acid monohydrate (GAM) were included in the first step.

α-secretase = α-secretase cleavage activity kit, lysates of APP-transfected N2a cells; settings: TAPI-1 25 μM with EGCG 20 μM, 4 hours; FIGS. 3d and e
[1] = 0.5 μM to 1.5 μM, SweAPP N2a cells, data not shown

Compound	α-CTF production (APP cleavage processing)	effect on the ability of EGCG to reduce Aβ production (Aβ generation)	α-CTF generation and α-CTF to β-CTF ratio (APP cleavage processing)	effect on the action of EGCG on α-CTF cleavage (APP cleavage processing)	also measured
Oc1cc(O)c2c(c1)O[C@@H](c1ccc(O)c(O)c1)[C@@H](O)C2 [(+) EC, (+)-epicatechin]	increases				
Oc1cc(O)c2c(c1)O[C@H](c1ccc(O)c(O)c1)[C@H](O)C2 [(−) EC, (−)-epicatechin]	increases				
Oc1cc(O)c2c(c1)O[C@H](c1cc(O)c(O)c(O)c1)[C@@H](O)C2 [GC, (−)-gallocatechin]		markedly inhibits the ability of EGCG to reduce Aβ production	decreased	significantly opposes	
CC(C)C[C@H](CC(=O)NO)C(=O)N[C@@H](Cc1ccc2ccccc2c1)C(=O)N[C@@H](C)C(=O)NCCN [TAPI-1, reference compound]					effect on EGCG promotion of APP α-secretase cleavage (α-secretase): significantly attenuated
CC(C)C[C@@H](C=O)NC(=O)[C@H](CC(C)C)NC(=O)[C@@H](NC(=O)OCc1ccccc1)C(C)C [β-secretase inhibitor II, reference compound] (Cbz-Val-Leu-Leu-aldehyde)					sAPP-α levels compared with EGCG (APP cleavage processing; [1]): failed to produce the same increased α-CTF and sAPP-α levels as EGCG; α-CTF levels compared with EGCG (APP cleavage processing; [1]): failed to produce the same increased α-CTF and sAPP-α levels as EGCG
(−)-catechin		markedly inhibits the ability of EGCG to reduce Aβ production	decreased	significantly opposes	
